The subject of one experiment is HaCaT keratinocytes. The arrangement: cytoprotection against 1O2-induced oxidative stress: dose or concentration left out as unconfirmed. Conditions: HaCaT.
The target in experiment [1] is T1, KEAP1 wild type (KEAP1-WT) (Homo sapiens, UniProt Q14145).
T1 construct: expressed in transfected cells; host or cells: HaCaT human keratinocytes
It counts as cell-based. Conditions: SF 5 μM, As 5 μM, bixin 40 μM; 16 h. The text has this: (§1) Since it has been shown previously that NRF2 activation by canonical inducers (including SF and tBHQ) depends on C (Cys)-151, a critical cysteine residue in KEAP1, the mechanistic involvement of KEAP1-C151 bixin-based NRF2 activation was examined. HaCaT cells were cotransfected with expression vectors for either KEAP1 wild type (KEAP1-WT) or a mutant KEAP1 (KEAP1-C151S; Cys-151 mutated to serine) along with ARE-firefly luciferase and Renilla luciferase reporters to assess NRF2 transcriptional activity (FIG. 3G). After exposure to SF (5 μM), As (sodium arsenite; 5 μM), or bixin (40 μM; all 16 h), NRF2 transcriptional activity was enhanced by all treatments in KEAP1-WT cells, whereas NRF2 activation by SF or bixin was abolished in KEAP1-C151S cells.
(§2) Transfection of cDNA was performed using Lipofectamine 3000 (Invitrogen) according to the manufacturer's instructions. Activation of NRF2 transcriptional activity was performed as previously published. Briefly, HaCaT cells were cotransfected with expression vectors for either KEAP1 wild type (KEAP1-WT) or KEAP1 with a mutation that generates a protein that contains a serine residue instead of a cysteine (KEAP1-C151S), along with NQO1-ARE firefly luciferase and Renilla luciferase reporters. At 24 h post-transfection, cells were left untreated or treated with SF (5 μM), As (5 μM), or bixin (40 μM) for 16 h. The cells were then lysed for analysis of the reporter gene activity using the Promega dual-luciferase reporter gene assay system.

The next experiment deals with T2, KEAP1-C151S (Homo sapiens, UniProt Q14145, C151S).
T2 construct: expressed in transfected cells; host or cells: HaCaT human keratinocytes
T2 sequence (Q14145 whole entry C151S): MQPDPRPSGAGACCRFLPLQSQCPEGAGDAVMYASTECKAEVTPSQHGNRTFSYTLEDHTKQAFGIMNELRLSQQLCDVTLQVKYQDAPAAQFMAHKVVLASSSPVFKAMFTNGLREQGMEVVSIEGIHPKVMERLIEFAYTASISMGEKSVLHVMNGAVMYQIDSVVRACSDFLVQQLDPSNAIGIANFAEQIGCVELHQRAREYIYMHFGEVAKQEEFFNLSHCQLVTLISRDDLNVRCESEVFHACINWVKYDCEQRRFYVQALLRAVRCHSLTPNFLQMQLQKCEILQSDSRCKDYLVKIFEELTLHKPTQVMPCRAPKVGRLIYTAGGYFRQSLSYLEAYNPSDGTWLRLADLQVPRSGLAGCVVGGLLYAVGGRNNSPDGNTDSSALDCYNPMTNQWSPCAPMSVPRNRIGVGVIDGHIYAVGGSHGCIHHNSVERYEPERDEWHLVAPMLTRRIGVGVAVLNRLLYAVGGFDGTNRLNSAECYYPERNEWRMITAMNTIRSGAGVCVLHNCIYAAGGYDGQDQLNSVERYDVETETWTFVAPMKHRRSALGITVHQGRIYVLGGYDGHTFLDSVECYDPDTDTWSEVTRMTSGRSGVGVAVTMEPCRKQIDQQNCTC
It counts as cell-based. The conditions noted are these: SF 5 μM, As 5 μM, bixin 40 μM; 16 h.
Text: as §1, §2

The subject of a further experiment is NRF2. The experiment in a line: Cell-based NRF2 ubiquitination assay. Further details: species or system human. Conditions: HaCaT, bixin 40 μM or SF 5 μM with MG132 10 μM, 4 h. The protocol:
In order to test if bixin-based NRF2 activation occurs through inhibition of KEAP1-mediated ubiquitination, a cell-based ubiquitination assay was performed in HaCaT cells cotransfected with expression vectors for NRF2 and HA-tagged ubiquitin (HA-Ub) (FIG. 3F). To this end, cells were either exposed to bixin (40 μM) or sulforaphane (SF; 5 μM, positive control) or left untreated, combined with proteasome inhibition (MG132; 10 μM, 4 h).
Experiments were performed according to previously published procedures. Cells were harvested in sample buffer (50 mM Tris-HCl [pH 6.8], 2% sodium dodecyl sulfate (SDS), 10% glycerol, 100 mM dithiothreitol (DTT), and 0.1% bromophenol blue), boiled and sonicated. Total cell lysates were resolved by SDS-PAGE and subjected to immunoblot analyses with the indicated antibodies. For the ubiquitination assay, cells were cotransfected with expression vectors for NRF2 and HA-tagged ubiquitin (HA-Ub). Cells were left untreated or treated with either 5 μM sulforaphane (SF) or 40 μM bixin along with 10 μM MG132 for 4 h. Cells were harvested in buffer containing 2% SDS, 150 mM NaCl, 10 mM Tris-HCl (pH 8.0), and 1 mM DTT and boiled immediately. […] The relative intensity of the bands was quantified using the ChemiDoc CRS gel documentation system and Quantity One software (BioRad).

T1 sequence (Q14145 whole entry, species assumed): as the sequence (Q14145 whole entry C151S) above, with S151C counted along it
Description for HaCaT keratinocytes: Photodynamic induction of intracellular oxidative stress and its suppression by bixin pretreatment was analyzed by flow cytometry using 2′,7′-dichlorodihydrofluorescein diacetate (DCFH-DA) as a sensitive non-fluorescent precursor dye according to a published standard procedure [14]. HaCaT keratinocytes were pretreated with bixin (1 or 24 h) and then exposed to singlet oxygen generated by dye-sensitization as described earlier [14, 44]. In brief, toluidine blue 0 (TB) photosensitization was achieved using a ‘Sylvania 15 W Cool White’ light tube delivering visible light at an irradiance of 4.29 mW/cm^2. The irradiance in the visible region (400-700 nm) was determined using a spectroradiometer, Model 754 from Optronic Laboratories (Orlando, Fla.). Cells received visible radiation at a distance of 50 mm from the source through the polystyrene lids of cell culture dishes. For ^1O2 exposure, cells were washed with PBS and immediately exposed to the combined action of visible light (0.3 J/cm^2) and TB (3.3 μM) in PBS. Following 5 min incubation in the dark after irradiation, cells were washed with PBS. Cells were then incubated for 60 min in the dark (37° C., 5% CO2) with culture medium containing DCFH-DA (5 μg/mL final concentration). Cells were then washed with PBS, harvested by trypsinization, resuspended in 300 μl PBS, and analyzed by flow cytometry.

With `[N-]=[N+]=[N-].[Na+]` [NaN3, reference compound], the “cytoprotection against 1O2-induced oxidative stress” value with HaCaT keratinocytes is “active only if present during visible light-driven dye sensitization”.

With `O=[As]O` [As, sodium arsenite], the “NRF2 transcriptional activity in KEAP1-WT cells” value in experiment [1] was “enhanced”. Moreover, on KEAP1-C151S, the “NRF2 activation in KEAP1-C151S cells” value is given as “equally effective”.

Turning to `C[S+]([O-])CCCCN=C=S` (stereo not drawn) [SF, sulforaphane], in experiment [1], the “NRF2 transcriptional activity in KEAP1-WT cells” value is “enhanced”. Also, the “NRF2 activation in KEAP1-C151S cells” value on KEAP1-C151S was “abolished”. In the experiment with NRF2, the “NRF2-ubiquitination versus untreated control” value was “inhibitory effects”.

Values taken from patent US20180243190A1, “ACTIVATORS OF NRF2-DEPENDENT PHOTOPROTECTION AND RELATED USES THEREOF” (THE ARIZONA BOARD OF REGENTS ON BEHALF OF THE UNIVERSITY OF …, priority 2015, published 2018).
